Experiments:
A2780 = assay: Induction of mitotic cell cycle arrest in human A2780 cells assessed as accumulation of cells at SubG1 phase at 100 nM after 24 hrs by flow cytometry (Rvb= 2.5%); format: functional
A549 = assay: Induction of mitotic cell cycle arrest in human A549 cells assessed as accumulation at S phase at 100 nM after 24 hrs by flow cytometry (Rvb= 16%); format: functional
PtK2 = assay: Induction of micronucleation in potoroo PtK2 cells at 10 uM after 7 hrs by flow cytometry; conditions: Potorous tridactylus

`CC1=C[C@H]2[C@@H](O)[C@H](C)[C@@H](O)[C@@H]2[C@H]2[C@@H]3C4=C5O[C@](C)(CC[C@@H](OC4=O)[C@H]5C)[C@@H]3C[C@@H]12` [CYCLOSTREPTIN] showed an Activity (A2780) of 16.3%, an Activity (A549) of 9% and an Activity (PtK2) of 4%.

Reference: ChEMBL document CHEMBL1240321, “Cyclostreptin binds covalently to microtubule pores and lumenal taxoid binding sites” (Nat Chem Biol, 2007)
